# “Also recorded” adds a separate entry of the source. Like-named read-outs stand apart in the source and are kept apart here. Marks after values point to notes of the source that are not given here.
# Columns and labels:
# [1] = tested on: CD-1 mice; assay: Radiant heat tail flick analgesia assay; type: in vivo, mouse; settings: for analgesic activity (in words): tail flick, doses as high as 10 mg/kg
# [2] = tested on: mice; settings: cited from earlier work
# [3] = tested on: mice; settings: cited from earlier work; remark: listed apart in the source
# [4] = cited from earlier work
# [5] = tested on: mice; settings: cited from earlier work; remark: listed apart in the source
# [6] = tested on: CD-1 mice; settings: cited from earlier work
# [7] = tested on: knockout mouse; settings: cited from earlier work
# [8] = molecular target: MOR-1 (mu) (Mus musculus, UniProt P42866); assay: Competition binding against 125I-BNtxA in CHO cells stably expressing MOR-1
# [9] = molecular target: KOR-1 (kappa) (Mus musculus, UniProt P33534); assay: Competition binding against 125I-BNtxA in CHO cells stably expressing KOR-1
# [10] = tested on: mice; assay: Respiratory depression assay; type: in vivo, mouse; settings: 15 2.5 mg/kg s.c., morphine 20 mg/kg s.c., about 4-fold analgesic ED50; n=5
# [11] = molecular target: DOR-1 (delta) (Mus musculus, UniProt P32300); assay: Competition binding against 125I-BNtxA in CHO cells stably expressing DOR-1; settings: for fold lower affinity for delta receptors: compared to 15
# [12] = molecular target: 6TM/E11 sites (Mus musculus, UniProt P42866); type: binding; settings: compared to 15
compound,measurement,setting,value
"17-Allyl-3,14β-dihydroxy-4,5α-epoxy-6β-[2-adamantylamido]morphinan [Compound 37]",Tail flick analgesia ED50 mg/kg (95%CL),"[1]; s.c., CD-1 mice, radiant heat tail flick, (95% confidence limits)",>10 mg/kg
"O=C(N[C@@H]1CC[C@@]2(O)[C@H]3Cc4ccc(O)c5c4[C@@]2(CCN3CC2CC2)[C@H]1O5)c1cccc(I)c1 [Compound 1, 3-Iodobenzoylnaltrexamide]",respiratory depression (in words),[2],no observable respiratory depression
same,inhibition of gastrointestinal transit (in words),[3],limited inhibition of gastrointestinal transit
same,rewarding behavior in the conditioned place preference assay (in words),[4],no observable
same,physical dependence (in words),[5],no observable
same,Tail flick analgesia ED50 mg/kg (95%CL),"[6]; (95% confidence limits), values from the literature ref 26","0.39 (0.15, 0.58) ^a mg/kg"
same,cross tolerance to morphine (in words),[6],no observable
same,analgesic potency fold greater than morphine,[6]; compared to morphine ref 26,10 fold
same,analgesic activity in E11 knockout mouse (in words),"[7]; E11 knockout mouse, disruption of exon 11-associated variants ref 26",without activity
same,analgesic activity in MOR-1/DOR-1/KOR-1 triple knockout mouse (in words),"[7]; triple knockout mouse lacking traditional mu, delta and kappa1 receptors ref 26",retained full analgesic activity
CN1CC[C@]23c4c5ccc(O)c4O[C@H]2[C@H](NC(=O)c2cccc(I)c2)CC[C@@]3(O)[C@H]1C5 [Compound 14],analgesic activity (in words),[1]; s.c.,No analgesia could be detected
"C=CCN1CC[C@]23c4c5ccc(O)c4O[C@H]2[C@H](NC(=O)c2cccc(I)c2)CC[C@@]3(O)[C@H]1C5 [Compound 15, 17-Allyl-3,14β-dihydroxy-4,5α-epoxy-6β-[(3′-iodo)benzamido]morphinan]",fold lower affinity for mu receptors,[8]; compared to 1,about 2 fold
same,fold lower affinity for kappa receptors,[9]; compared to 1,about 2 fold
same,effect on respiratory rate (in words),[10],did not depress respiratory rate; also recorded: no respiratory depression
same,fold more potent an analgesic than morphine,[1]; compared to morphine,10 fold
"C=CCN1CC[C@]23c4c5ccc(O)c4O[C@H]2[C@@H](NC(=O)c2cccc(I)c2)CC[C@@]3(O)[C@H]1C5 [Compound 16, 17-Allyl-3,14β-dihydroxy-4,5α-epoxy-6α-[(3′-iodo)benzamido]morphinan]",fold lower affinity for mu receptors,[8]; compared to 15,23 fold
same,fold lower affinity for kappa receptors,[9]; compared to 15,150 fold
same,fold lower affinity for delta receptors,[11],3 fold
same,fold lower binding affinity for the 6TM/E11 site,[12],33 fold
same,fold higher ED50 / lower analgesic activity,[1]; compared to 15,10 fold
"C=CCN1CC[C@]23c4c5ccc(O)c4O[C@H]2[C@H](NC(=O)c2ccccc2I)CC[C@@]3(O)[C@H]1C5 [Compound 17, 17-Allyl-3,14β-dihydroxy-4,5α-epoxy-6β-[(2′-iodo)benzamido]morphinan]",fold lower affinity for mu receptors,[8]; compared to 15,approximately 10 fold
same,fold lower affinity for kappa receptors,[9]; compared to 15,approximately 10 fold
same,fold lower affinity for delta receptors,[11],approximately 10 fold
same,fold lower binding affinity for the 6TM/E11 site,[12],100 fold
same,analgesic activity (in words),[1]; s.c.,eliminated its analgesic activity
"C=CCN1CC[C@]23c4c5ccc(O)c4O[C@H]2[C@H](NC(=O)c2ccccc2)CC[C@@]3(O)[C@H]1C5 [Compound 22, 17-Allyl-3,14β-dihydroxy-4,5α-epoxy-6β-(benzamido)morphinan]",fold lower affinity for mu receptors,[8]; compared to 15,about 20 fold
same,fold lower affinity for kappa receptors,[9]; compared to 15,~180 fold
same,fold lower affinity for delta receptors,[11],~25 fold
same,fold lower binding affinity for the 6TM/E11 site,[12],over 20 fold
"C=CCN1CC[C@]23c4c5ccc(O)c4O[C@H]2[C@H](NC(=O)c2cccc(C(F)(F)F)c2)CC[C@@]3(O)[C@H]1C5 [Compound 24, 17-Allyl-3,14β-dihydroxy-4,5α-epoxy-6β-[(3′-trifluoromethyl)benzamido]morphinan]",analgesic activity (in words),[1]; s.c.,potent analgesic actions
"C=CCN1CC[C@]23c4c5ccc(O)c4O[C@H]2[C@H](NC(=O)c2cccc(OC)c2)CC[C@@]3(O)[C@H]1C5 [Compound 25, 17-Allyl-3,14β-dihydroxy-4,5α-epoxy-6β-[(3′-methoxy)benzamido]morphinan]",fold mu selectivity over delta,[8]; mu vs delta,100 fold
same,fold lower binding affinity for the 6TM/E11 site,[12],10 fold
same,fold greater analgesic potency,[1]; compared to 15,over 3 fold
same,analgesic activity (in words),[1]; s.c.,potent analgesic actions
"C=CCN1CC[C@]23c4c5ccc(O)c4O[C@H]2[C@H](NC(=O)c2ccc(-c4ccccc4)cc2)CC[C@@]3(O)[C@H]1C5 [Compound 32, 17-Allyl-3,14β-dihydroxy-4,5α-epoxy-6β-[(4′-phenyl)benzamido]morphinan]",analgesic activity (in words),[1]; s.c.,not analgesic
"C=CCN1CC[C@]23c4c5ccc(O)c4O[C@H]2[C@H](NC(=O)CCCCC)CC[C@@]3(O)[C@H]1C5 [Compound 34, 17-Allyl-3,14β-dihydroxy-4,5α-epoxy-6β-(hexylamido)morphinan]",Ki,[9],9.15 ± 0.94 nM
"O=C(NC1CCC2(O)C3Cc4ccc(O)c5c4C2(CCN3CC2CC2)C1O5)c1cccc(I)c1 (stereo not shown) [Compound 125IBNtxA, reference compound]",Kd,"[8]; read-out: 125IBNtxA KD MOR-1, radioligand KD",0.11 nM
same,Kd,"[9]; read-out: 125IBNtxA KD KOR-1, radioligand KD",0.03 nM
same,Kd,"[11]; read-out: 125IBNtxA KD DOR-1, radioligand KD",0.24 nM
"CN1CC[C@]23c4c5ccc(O)c4O[C@H]2[C@@H](O)C=C[C@H]3[C@H]1C5 [morphine, reference compound]",effect on respiratory rate (in words),[10],decreases respiratory depression
